The source of these data is patent US11040031B2, “Pyrazole derivatives as MALT1 inhibitors” (Janssen Pharmaceutica NV, priority 2018, dated 2021).

Like-named read-outs stand apart in the source and are kept apart here.

For test [1], the system named is Secretion of IL6 by TMD8 ABC-DLBCL cells. The test can be described thus: Human IL6 Mesoscale assay (TMD-8). The test is classed as cell-based. The settings on record: read-out: Human IL6 Mesoscale assay (TMD-8). As to the method: (§1) NFKB signaling regulates the secretion of multiple cytokines, including IL6 and IL10. Secretion of the cytokines IL6 and IL10 by TMD8 or OCI-LY3 ABC-DLBCL cells was measured using a mesoscale assay.
(§2) Cell passage number should not exceed 30. Cells should be kept between 0.5-2.5 million cells per mL during culturing and cells should be supplemented every 2-3 days with fresh 50 µM beta-mercaptoenthanol. No beta-mercaptoethanol was used during the mesoscale assay.
(§3) DMSO control wells were used to determine the maximum signal (High Control (HC)). […] Compounds and cells were incubated for 24 h at 37° C. and 5% CO2 (assay volume is 150 μL). After 24 h of incubation 50 μL of the supernatant was transferred to a MSD plate (V-Plex Proinflammation Panel 1 (human) kit, Mesoscale (MSD)) and incubated for 2 h with vigorous shaking (600 rpm) at room temperature. Following incubation, plates were washed 3× with PBS+0.05% Tween-20 and 25 μL detection antibody solution (IL6 & IL10 antibodies in diluent 3 (MSD)) was added per well followed by 2 h of incubation with vigorous shaking (600 rpm) at room temperature. After 3× washes with PBS+0.05% Tween-20, plates were incubated with 150 μL 2× Read Buffer T and read on SECTOR imager.

For test [2], the system named is Secretion of IL10 by TMD8 ABC-DLBCL cells. The test can be described thus: Human IL10 Mesoscale assay (TMD-8). Format: cell-based. The settings on record: read-out: Human IL10 Mesoscale assay (TMD-8). As to the method:
as §1, §2, §3

Test [3] deals with OCI-Ly3 ABC-DLBCL cell line. Kind of test: 4-day proliferation assay OCI-Ly3. Format: cell-based. The settings on record: Homo sapiens, read-out: Anti-proliferation: OCI-LY-3 IC50. In a few lines: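 10,000 OCI-Ly3 cells per well cultured 4 days at 37° C., 5% CO2 without beta-mercaptoethanol, at densities giving linear growth. Viability read by CellTiterGLO luminescence after 10 min at room temperature.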

The target in test [4] is T1, full-length MALT1 protein (Strep-MALT1(1-824)-His) (Homo sapiens, UniProt Q9UDY8).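 Further: fluorogenic LRSR-AMC substrate cleavage by MALT1, 50 min compound preincubation then 4 h reaction at RT, 11-point dilution from 30 µM, scaled between enzyme-free and untreated enzyme controls.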
T1 sequence (Q9UDY8 1-824): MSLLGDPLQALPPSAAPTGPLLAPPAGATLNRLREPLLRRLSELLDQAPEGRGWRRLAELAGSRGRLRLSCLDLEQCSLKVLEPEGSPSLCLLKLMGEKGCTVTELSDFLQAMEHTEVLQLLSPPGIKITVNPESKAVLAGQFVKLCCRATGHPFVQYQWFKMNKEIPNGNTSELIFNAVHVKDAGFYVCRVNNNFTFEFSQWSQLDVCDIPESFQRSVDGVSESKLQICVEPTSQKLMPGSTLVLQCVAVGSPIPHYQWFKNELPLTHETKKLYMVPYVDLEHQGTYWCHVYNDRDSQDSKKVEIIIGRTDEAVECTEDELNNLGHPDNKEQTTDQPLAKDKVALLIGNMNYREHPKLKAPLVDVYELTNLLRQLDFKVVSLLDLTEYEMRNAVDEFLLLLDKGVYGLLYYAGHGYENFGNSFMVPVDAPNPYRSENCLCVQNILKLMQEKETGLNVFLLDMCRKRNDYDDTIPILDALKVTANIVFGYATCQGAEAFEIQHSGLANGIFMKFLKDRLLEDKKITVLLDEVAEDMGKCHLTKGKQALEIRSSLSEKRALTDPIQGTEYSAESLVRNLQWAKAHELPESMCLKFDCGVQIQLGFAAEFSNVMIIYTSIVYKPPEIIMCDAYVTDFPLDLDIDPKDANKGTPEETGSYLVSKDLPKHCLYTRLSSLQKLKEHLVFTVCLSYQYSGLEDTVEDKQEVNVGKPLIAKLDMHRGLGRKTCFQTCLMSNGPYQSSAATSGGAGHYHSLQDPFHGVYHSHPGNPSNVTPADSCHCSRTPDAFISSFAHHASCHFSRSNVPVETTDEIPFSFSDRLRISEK
The test can be described thus: biochemical.
Procedure: MALT1 protease activity was assessed in an in vitro assay using a tetrapeptide as substrate and full-length MALT1 protein (Strep-MALT1(1-824)-His) purified from baculovirus-infected insect cells. The tetrapeptide LRSR is coupled to AMC (7-amino-4-methylcoumarin) and provides a quenched, fluorescent substrate for the MALT1 protease (SM Biochemicals). Cleavage of AMC from the Arginine residue results in an increase in coumarin fluorescence measured at 460 nm (excitation 355 nm). […] Test compounds were spotted at 50 nL in 100% DMSO per well of a black 384-Proxiplate (Perkin Elmer). Test compound concentrations ranged from 30 μM to 0.5 nM using 11 dilution steps (1:3). Background signal was measured from control wells containing assay buffer without enzyme which functions as low control (LC). High control (HC) values were generated using the reaction with enzyme but no compound treatment. Compounds were pre-incubated with MALT1 enzyme for 50 minutes at RT. Substrate was added subsequently and fluorescence was measured in Labsystems fluoroskan at excitation 355 nm and emission 460 nm to determine time 0. The reaction was subsequently incubated for 4 h at RT and fluorescence was measured. […] The enzyme reaction was linear during the 4 h incubation period.
IC50 values were calculated using the following formula (Z prime should be >0.5):
From this an IC50 value (inhibitory concentration causing 50% inhibition) can be obtained. An estimate of the slope of the plot in terms of the Hill coefficient was also obtained.
With y=estimated response • UB=upper bound • LB=lower bound • h=hill

Test [5] concerns Secretion of IL10 by OCI-LY3 ABC-DLBCL cells. The test can be described thus: Human IL10 Mesoscale assay (OCI-LY3). Format: cell-based. The settings on record: OCI-LY3 cells, 24 h incubation, supernatant, MSD V-Plex, read-out: Human IL10 Mesoscale assay (OCI-LY3). The procedure, abridged:
(§4)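 TMD8 or OCI-LY3 ABC-DLBCL cells incubated with compound 24 h at 37° C without beta-mercaptoethanol. Secreted IL6 and IL10 in supernatant quantified by MSD electrochemiluminescence immunoassay; DMSO wells define maximum signal.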

Test [6] relates to Secretion of IL6 by OCI-LY3 ABC-DLBCL cells. The test can be described thus: Human IL6 Mesoscale assay (OCI-LY3). The test is classed as cell-based. The settings on record: OCI-LY3 cells, 24 h incubation, supernatant, MSD V-Plex, read-out: Human IL6 Mesoscale assay (OCI-LY3). In a few lines: as §4
Setting [7] is: TMD8 cells, 24 h incubation, supernatant, MSD V-Plex.
The mark [8] stands for this setting: 96 h, 10,000 OCI-Ly3 cells per well, 4 days, CellTiterGLO.

As to `Cc1cc(Cl)ccc1-n1ncc(C(=O)Nc2cnc(-n3nccn3)c(Cl)c2)c1C(F)(F)F` [Cpd 2, 1-(4-Chloro-2-methylphenyl)-N-(5-chloro-6-(2H-1,2,3-triazol-2-yl)pyridin-3-yl)-5-(trifluoromethyl)-1H-pyrazole-4-carboxamide], the IC50 came to 0.148 µM in test [1] (setting [7]), 0.065 µM in test [2] (setting [7]), 0.741 µM in test [3] (setting [8]) and 0.132 µM in test [4].
In the case of `O=C(Nc1cnc(-n2nccn2)c(Cl)c1)c1cnn(-c2ccccc2)c1C(F)(F)F` [Cpd 5, N-(5-Chloro-6-(2H-1,2,3-triazol-2-yl)pyridin-3-yl)-1-phenyl-5-(trifluoromethyl)-1H-pyrazole-4-carboxamide], the IC50 in test [1] (setting [7]) amounted to 0.263 µM; in test [2] (setting [7]) it was 0.741 µM; in test [3] (setting [8]), 0.38 µM; in test [4] it was 0.295 µM.
In the case of `O=C(Nc1cnc(-n2nccn2)c(Cl)c1)c1cnn(-c2ccc(F)cn2)c1C(F)(F)F` [Cpd 7, N-(5-Chloro-6-(2H-1,2,3-triazol-2-yl)pyridin-3-yl)-1-(5-fluoropyridin-2-yl)-5-(trifluoromethyl)-1H-pyrazole-4-carboxamide], the IC50 in test [1] (TMD8, 24 h) is 0.407 µM; in test [2] (TMD8, 24 h), 0.417 µM; in test [3] (OCI-Ly3, 96 h), 1.55 µM; in test [4], 0.912 µM.
In the case of `COc1ncccc1-n1ncc(C(=O)Nc2cnc(-n3nccn3)c(Cl)c2)c1C(F)(F)F` [Cpd 14, N-(5-Chloro-6-(2H-1,2,3-triazol-2-yl)pyridin-3-yl)-1-(2-methoxypyridin-3-yl)-5-(trifluoromethyl)-1H-pyrazole-4-carboxamide], the IC50 in test [1] (setting [7]) turned out to be 0.316 µM; in test [2] (setting [7]), 0.282 µM; in test [3] (setting [8]), 2.14 µM; in test [4], 0.148 µM.
Consider `O=C(Nc1cnc(-n2nccn2)c(Cl)c1)c1cnn(-c2ccc(F)cc2)c1C(F)(F)F` [Cpd 18, N-(5-chloro-6-(2H-1,2,3-triazol-2-yl)pyridin-3-yl)-1-(4-fluorophenyl)-5-(trifluoromethyl)-1H-pyrazole-4-carboxamide], for which the IC50 in test [2] (TMD8, 24 h) turned out to be 0.115 µM; in test [3] (OCI-Ly3, 96 h), 6.46 µM; in test [4], 0.151 µM.
Consider `N#Cc1ccc(-n2ncc(C(=O)Nc3cnc(-n4nccn4)c(Cl)c3)c2C(F)(F)F)cc1` [Cpd 19, N-(5-chloro-6-(2H-1,2,3-triazol-2-yl)pyridin-3-yl)-1-(4-cyanophenyl)-5-(trifluoromethyl)-1H-pyrazole-4-carboxamide], for which the IC50 amounted to 0.117 µM in test [2] (setting [7]), 7.94 µM in test [3] (setting [8]) and 0.132 µM in test [4].
For `O=C(Nc1cnc(-n2nccn2)c(Cl)c1)c1cnn(-c2cccc(F)c2)c1C(F)(F)F` [Cpd 20, N-(5-chloro-6-(2H-1,2,3-triazol-2-yl)pyridin-3-yl)-1-(3-fluorophenyl)-5-(trifluoromethyl)-1H-pyrazole-4-carboxamide], the IC50 in test [2] (TMD8, 24 h) came out at 1 µM; in test [3] (OCI-Ly3, 96 h), 12.6 µM; in test [4] it was 0.562 µM.
As to `N#Cc1cccc(-n2ncc(C(=O)Nc3cnc(-n4nccn4)c(Cl)c3)c2C(F)(F)F)c1` [Cpd 21, N-(5-chloro-6-(2H-1,2,3-triazol-2-yl)pyridin-3-yl)-1-(3-cyanophenyl)-5-(trifluoromethyl)-1H-pyrazole-4-carboxamide], the IC50 turned out to be 0.912 µM in test [1] (setting [7]), 1.26 µM in test [2] (setting [7]), 0.741 µM in test [3] (setting [8]) and 1.12 µM in test [4].
Take `Cc1ccnc(-n2ncc(C(=O)Nc3cnc(-n4nccn4)c(Cl)c3)c2C(F)(F)F)c1` [Cpd 22, N-(5-chloro-6-(2H-1,2,3-triazol-2-yl)pyridin-3-yl)-1-(4-methylpyridin-2-yl)-5-(trifluoromethyl)-1H-pyrazole-4-carboxamide]: the IC50 in test [1] (TMD8, 24 h) is 0.437 µM; in test [2] (TMD8, 24 h), 0.724 µM; in test [3] (OCI-Ly3, 96 h), 0.49 µM; in test [4], 0.724 µM.
For `Cc1ccc(-n2ncc(C(=O)Nc3cnc(-n4nccn4)c(Cl)c3)c2C(F)(F)F)nc1` [Cpd 23, N-(5-chloro-6-(2H-1,2,3-triazol-2-yl)pyridin-3-yl)-1-(5-methylpyridin-2-yl)-5-(trifluoromethyl)-1H-pyrazole-4-carboxamide], the IC50 in test [1] (TMD8, 24 h) worked out at 0.891 µM; in test [2] (TMD8, 24 h), 1.07 µM; in test [3] (OCI-Ly3, 96 h), 0.479 µM; in test [4], 0.933 µM.
`Cc1ccc(-n2ncc(C(=O)Nc3cnc(-n4nccn4)c(Cl)c3)c2C(F)(F)F)cc1` [Cpd 27, N-(5-chloro-6-(2H-1,2,3-triazol-2-yl)pyridin-3-yl)-1-(p-tolyl)-5-(trifluoromethyl)-1H-pyrazole-4-carboxamide]: the IC50 stood at 1.2 µM in test [1] (setting [7]), 1.38 µM in test [2] (setting [7]), 3.89 µM in test [3] (setting [8]) and 0.851 µM in test [4].
As for `Cc1ccccc1-n1ncc(C(=O)Nc2cnc(-n3nccn3)c(Cl)c2)c1C(F)(F)F` [Cpd 29, N-(5-chloro-6-(2H-1,2,3-triazol-2-yl)pyridin-3-yl)-1-(o-tolyl)-5-(trifluoromethyl)-1H-pyrazole-4-carboxamide], the IC50 in test [1] (setting [7]) is 0.135 µM; in test [2] (setting [7]), 0.132 µM; in test [3] (setting [8]), 1.23 µM; in test [4], 0.151 µM.
For `COc1nccc(-n2ncc(C(=O)Nc3cnc(-n4nccn4)c(C#N)c3)c2C(F)(F)F)c1Cl` [Cpd 32, 1-(3-Chloro-2-methoxypyridin-4-yl)-N-(5-cyano-6-(2H-1,2,3-triazol-2-yl)pyridin-3-yl)-5-(trifluoromethyl)-1H-pyrazole-4-carboxamide] the same measures were 1.12 µM, 0.646 µM, 0.575 µM and 0.589 µM.
In the case of `N#Cc1cc(NC(=O)c2cnn(-c3nccc(N)c3Cl)c2C(F)(F)F)cnc1-n1nccn1` [Cpd 120, 1-(4-amino-3-chloropyridin-2-yl)-N-(5-cyano-6-(2H-1,2,3-triazol-2-yl)pyridin-3-yl)-5-(trifluoromethyl)-1H-pyrazole-4-carboxamide], the IC50 came to 0.794 µM in test [5]; 0.741 µM in test [6]; 1.1 µM in test [1] (setting [7]); 1.35 µM in test [2] (setting [7]); 0.126 µM in test [4].
In the case of `CN1CCc2c1cccc2-n1ncc(C(=O)Nc2cnc(-n3nccn3)c(C#N)c2)c1C(F)(F)F` [Cpd 128, N-(5-cyano-6-(2H-1,2,3-triazol-2-yl)pyridin-3-yl)-1-(1-methylindolin-4-yl)-5-(trifluoromethyl)-1H-pyrazole-4-carboxamide], the IC50 in test [1] (setting [7]) came to 1.02 µM; in test [2] (setting [7]) it was 2.24 µM; in test [4], 0.229 µM.
For `N#Cc1cc(NC(=O)c2cnn(-c3cccc4c3CCN4)c2C(F)(F)F)cnc1-n1nccn1` [Cpd 130, N-(5-cyano-6-(2H-1,2,3-triazol-2-yl)pyridin-3-yl)-1-(indolin-4-yl)-5-(trifluoromethyl)-1H-pyrazole-4-carboxamide], the IC50 in test [1] (setting [7]) was 0.437 µM; in test [2] (setting [7]) it was 0.245 µM; in test [4], 0.234 µM.
